Holding throughout (format): cell-based
Assay [1] addresses T1, DP (Homo sapiens, UniProt Q13258).
T1 sequence (Q13258 1-359): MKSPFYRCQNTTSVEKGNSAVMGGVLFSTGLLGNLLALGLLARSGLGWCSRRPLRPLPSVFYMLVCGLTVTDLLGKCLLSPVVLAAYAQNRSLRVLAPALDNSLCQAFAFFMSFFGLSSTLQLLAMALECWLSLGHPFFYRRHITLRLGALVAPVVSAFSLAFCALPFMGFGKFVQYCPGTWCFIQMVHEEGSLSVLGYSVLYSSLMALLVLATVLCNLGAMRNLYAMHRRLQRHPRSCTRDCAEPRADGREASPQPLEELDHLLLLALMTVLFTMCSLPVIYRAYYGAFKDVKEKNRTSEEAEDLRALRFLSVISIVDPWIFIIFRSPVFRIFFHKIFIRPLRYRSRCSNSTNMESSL
The assay can be described thus: 3H-PGD2 competition binding, K562/DP cells.

For assay [2], the target named is T2, CRTH2 (Homo sapiens, UniProt Q9Y5Y4).
T2 sequence (Q9Y5Y4 1-395): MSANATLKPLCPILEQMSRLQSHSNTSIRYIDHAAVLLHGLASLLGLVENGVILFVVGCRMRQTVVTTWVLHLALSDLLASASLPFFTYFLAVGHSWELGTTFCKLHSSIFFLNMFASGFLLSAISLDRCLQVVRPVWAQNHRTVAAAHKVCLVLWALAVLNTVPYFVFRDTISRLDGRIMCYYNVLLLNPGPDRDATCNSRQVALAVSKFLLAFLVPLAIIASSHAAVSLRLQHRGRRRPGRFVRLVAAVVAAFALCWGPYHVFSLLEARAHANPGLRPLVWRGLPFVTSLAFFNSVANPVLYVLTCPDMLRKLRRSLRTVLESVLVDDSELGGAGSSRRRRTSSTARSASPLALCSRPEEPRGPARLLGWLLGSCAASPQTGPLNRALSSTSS
The assay is described as follows: 3H-PGD2 competition binding, K562/CRTH2 cells.

For assay [3], the target named is T2, CRTH2. The assay can be described thus: 3H-PGD2 saturation binding.
Assay [4] addresses T1, DP. The assay is described as follows: 3H-PGD2 saturation binding.

A word on the Ki: it is a measure of affinity in units of concentration, obtained from inhibition or displacement. Higher therefore signals lower affinity. On to `CCCCC[C@H](O)/C=C/[C@@H]1[C@@H](C/C=C\CCCC(=O)O)[C@@H](O)C[C@@H]1O` [11β-PGF2α], for which the Ki at DP [1] stood at 1200 nM; on CRTH2 [2] it was 20000 nM.
The matching figures for `CCCCC/C=C/C=C1/C(=O)C=C[C@@H]1C/C=C\CCCC(=O)O` [15-deoxy-Δ^12,14-PGJ2]: more than 30000 nM and 2300 nM.
The matching figures for `O=C(O)CCCCCC[C@H]1C(=O)NC(=O)N1CC[C@@H](O)C1CCCCC1` [BW245C]: 50 ± 20 nM and more than 100000 nM.
For `CCCCCC(=O)CC[C@H]1C(=O)C[C@H](O)[C@@H]1C/C=C\CCCC(=O)O` [DK-PGD2, 13,14-dihydro-15-keto-PGD2], in that order: more than 30000 nM and 160 ± 35 nM.
For the molecule `CCCCC/C=C\C[C@@H](O)/C=C/C=C/C=C\[C@@H](O)CCCC(=O)O` [LTB4], the Ki at DP [1] and at CRTH2 [2] was more than 30000 nM throughout.
Take `CCCCC[C@H](O)/C=C/C=C\C=C\C=C\[C@@H](O)[C@@H](O)CCCC(=O)O` [LXA4]: the Ki on DP [1] and at CRTH2 [2] was more than 30000 nM throughout.
On to `CCCCC[C@H](O)/C=C/[C@H]1C=CC(=O)[C@@H]1C/C=C\CCCC(=O)O` [PGA2], for which the Ki at DP [1] and on CRTH2 [2] was more than 30000 nM in each case.
Regarding `CCCCC[C@H](O)/C=C/[C@H]1C(=O)C[C@H](O)[C@@H]1C/C=C\CCCC(=O)OC` [PGD2 methyl ester], the Ki was found to be 270 ± 46 nM on DP [1] and 460 ± 120 nM at CRTH2 [2].
In general, Kd refers to the equilibrium constant for the complex coming apart. A low value points to higher affinity. Take `CCCCC[C@H](O)/C=C/[C@H]1C(=O)C[C@H](O)[C@@H]1C/C=C\CCCC(=O)O` [PGD2]: the Ki is 45 ± 17 nM on DP [1] and 61 ± 23 nM on CRTH2 [2]. The Kd on CRTH2 [3] turned out to be 31.3 nM; at DP [4] it was 37.7 nM.
Take `CCCCC[C@H](O)/C=C/[C@H]1[C@H](O)CC(=O)[C@@H]1C/C=C\CCCC(=O)O` [PGE2]: the results for the Ki at DP [1] and at CRTH2 [2] were 2300 nM and 3100 nM, respectively.
For `CCCCC[C@H](O)/C=C/[C@@H]1[C@@H](C/C=C\CCCC(=O)O)[C@@H](O)C[C@H]1O` [PGF2α], in that order: more than 30000 nM and 2000 nM.
Regarding `CCCCC[C@H](O)/C=C/[C@H]1C(=O)C=C[C@@H]1C/C=C\CCCC(=O)O` [PGJ2], the Ki on DP [1] was determined as 64 ± 13 nM; at CRTH2 [2], 460 ± 160 nM.
For `CCCCC[C@H](O)/C=C/[C@@H]1[C@@H](C/C=C\CCCC(=O)O)[C@H]2CO[C@@H]1C2` [U46619], in that order: more than 30000 nM and more than 30000 nM.
For the molecule `CCCCC[C@H](O)C/C=C1/C(=O)C=C[C@@H]1C/C=C\CCCC(=O)O` [Δ^12-PGJ2], the Ki at DP [1] was found to be 5200 nM; on CRTH2 [2], 7100 nM.
